Patent US9938269B2, “Inhibitor compounds of phosphodiesterase type 10A” (ABBVIE INC., priority 2011, dated 2018)
Counter-ions that a name gives are not always drawn.

Legend:
PDE10A (human) = target: T1, PDE10A (human) (Homo sapiens, UniProt Q9Y233); assay: Measurement of PDE activity (HTRF cAMP kit), human PDE10A; type: biochemical; conditions: PDE enzymatic reaction, substrate 20 nM for PDE10, 60 minutes at 29 C
T1 construct: purchased BPS Bioscience
Method in brief: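 Recombinant human PDE10A (10–250 pM range across PDEs) with 20 nM cAMP substrate in 20 mM Tris-HCl pH 7.5, 10 mM MgCl2, 0.1% BSA, compound pre-mixed with enzyme. Ran 60 min at 29 °C. Remaining cAMP read by HTRF, converted to % of uninhibited activity, and IC50 fitted.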

[1] = Determination of the microsomal half-life, rat liver microsomes; conditions: rat, liver microsomes, pH 7.4
[2] = Determination of the microsomal half-life, human liver microsomes; conditions: human, liver microsomes, pH 7.4
Method: The test substances were incubated in a concentration of 0.5 μM as follows:
0.5 μM test substance are preincubated together with liver microsomes from different species (from rat, human or other species) (0.25 mg of microsomal protein/10 in 0.05 M potassium phosphate buffer of pH 7.4 in microtiter plates at 37° C. for 5 min. The reaction is started by adding NADPH (1 mg/mL). After 0, 5, 10, 15, 20 and 30 min., 50 μl aliquots are removed, and the reaction is immediately stopped and cooled with the same volume of acetonitrile. The samples are frozen until analyzed. The remaining concentration of undegraded test substance is determined by MSMS. The half-life (T½) is determined from the gradient of the signal of test substance/unit time plot, it being possible to calculate the half-life of the test substance, assuming first order kinetics, from the decrease in the concentration of the compound with time. The microsomal clearance (mCl) is calculated from mCl=ln 2/T½/(content of microsomal protein in mg/ml)×1000 [ml/min/mg]

T1 sequence (Q9Y233 whole entry): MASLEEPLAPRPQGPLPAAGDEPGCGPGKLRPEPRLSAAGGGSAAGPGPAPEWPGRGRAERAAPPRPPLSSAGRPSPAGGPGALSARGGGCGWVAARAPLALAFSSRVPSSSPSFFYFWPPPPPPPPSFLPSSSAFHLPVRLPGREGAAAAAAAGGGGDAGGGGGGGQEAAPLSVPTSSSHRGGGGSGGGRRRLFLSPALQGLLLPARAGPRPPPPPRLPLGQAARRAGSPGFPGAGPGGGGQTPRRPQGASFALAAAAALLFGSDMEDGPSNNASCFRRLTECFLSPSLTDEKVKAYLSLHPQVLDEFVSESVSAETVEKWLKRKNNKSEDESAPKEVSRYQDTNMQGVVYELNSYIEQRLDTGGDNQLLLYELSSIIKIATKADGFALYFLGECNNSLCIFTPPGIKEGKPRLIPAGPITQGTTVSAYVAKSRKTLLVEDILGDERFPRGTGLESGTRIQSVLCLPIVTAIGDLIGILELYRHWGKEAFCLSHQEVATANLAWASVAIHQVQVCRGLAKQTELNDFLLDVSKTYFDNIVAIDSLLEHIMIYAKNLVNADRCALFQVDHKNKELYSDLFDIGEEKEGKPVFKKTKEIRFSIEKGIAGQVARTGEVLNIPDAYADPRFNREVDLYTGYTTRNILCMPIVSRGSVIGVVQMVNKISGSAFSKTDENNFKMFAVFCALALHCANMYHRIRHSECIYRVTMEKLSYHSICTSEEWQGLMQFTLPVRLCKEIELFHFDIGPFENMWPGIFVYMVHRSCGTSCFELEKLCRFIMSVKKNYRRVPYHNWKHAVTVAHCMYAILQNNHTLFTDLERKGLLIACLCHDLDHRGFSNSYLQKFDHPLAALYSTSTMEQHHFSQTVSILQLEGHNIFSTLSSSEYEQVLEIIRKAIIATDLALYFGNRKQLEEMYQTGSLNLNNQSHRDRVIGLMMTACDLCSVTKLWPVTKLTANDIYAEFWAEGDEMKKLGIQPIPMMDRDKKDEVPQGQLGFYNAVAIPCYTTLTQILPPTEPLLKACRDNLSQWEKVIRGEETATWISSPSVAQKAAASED

| IC50 (PDE10A (human)) | microsomal CLint at 0.5 μM [1] | microsomal CLint at 0.5 μM [2] | SMILES |
| --- | --- | --- | --- |
| < 100 nM | < 100 µL/min/mg | < 100 µL/min/mg | O=C1c2c(cccc2-c2ccncc2)CN1CCc1cn2ccccc2n1 [Example 20, 2-(2-Imidazo[1,2-a]pyridin-2-yl-ethyl)-7-pyridin-4-yl-2,3-dihydro-isoindol-1-one] |
| < 100 nM | 100 to 220 µL/min/mg | 100 to 220 µL/min/mg | O=C1c2c(C3=CCOCC3)ccnc2CN1CCc1ccc2ccccc2n1 [Example 265, 4-(3,6-Dihydro-2H-pyran-4-yl)-6-(2-quinolin-2-yl-ethyl)-6,7-dihydro-pyrrolo[3,4-b]pyridin-5-one] |
| < 100 nM | < 100 µL/min/mg | 100 to 220 µL/min/mg | O=C1c2c(cccc2-c2cncnc2)CN1CCc1cn2ccccc2n1 [Example 238, 2-(2-Imidazo[1,2-a]pyridin-2-yl-ethyl)-7-pyrimidin-5-yl-2,3-dihydro-isoindol-1-one] |
| < 100 nM | 100 to 220 µL/min/mg | > 220 µL/min/mg | O=C1c2c(cccc2-c2cncnc2)CN1CCc1ccc2sccc2n1 [Example 559, 7-Pyrimidin-5-yl-2-(2-thieno[3,2-b]pyridin-5-ylethyl)isoindolin-1-one] |
| < 100 nM | < 100 µL/min/mg | 100 to 220 µL/min/mg | O=C1c2c(-c3cccnc3)ccc(F)c2CN1CCc1cn2ccccc2n1 [Example 378, 4-Fluoro-2-(2-imidazo[1,2-a]pyridin-2-yl-ethyl)-7-pyridin-3-yl-2,3-dihydro-isoindol-1-one] |
| < 100 nM | < 100 µL/min/mg | < 100 µL/min/mg | O=C1c2c(-c3ccnnc3)ccnc2CN1CCc1ccc2ccccc2n1 [Example 338, 4-Pyridazin-4-yl-6-(2-quinolin-2-yl-ethyl)-6,7-dihydro-pyrrolo[3,4-b]pyridin-5-one] |
| < 100 nM | > 220 µL/min/mg | < 100 µL/min/mg | COc1ccc(N2CCN(C)CC2)c2c1CN(CCc1ccc3ccccc3n1)C2=O [Example 261, 4-Methoxy-7-(4-methyl-piperazin-1-yl)-2-(2-quinolin-2-yl-ethyl)-2,3-dihydro-isoindol-1-one di-trifluoroacetate] |
| 100 to 200 nM | < 100 µL/min/mg | < 100 µL/min/mg | Cn1nccc1-c1cccc2c1C(=O)N(CCc1cn3ccccc3n1)C2 [Example 239, 2-(2-Imidazo[1,2-a]pyridin-2-yl-ethyl)-7-(2-methyl-2H-pyrazol-3-yl)-2,3-dihydro-isoindol-1-one] |
| < 100 nM | 100 to 220 µL/min/mg | 100 to 220 µL/min/mg | COc1ccc(-c2ccc(OC)c3c2CN(CCc2cn4ccccc4n2)C3=O)cc1 [compound 457, 2-(2-Imidazo[1,2-a]pyridin-2-yl-ethyl)-7-methoxy-4-(4-methoxy-phenyl)-2,3-dihydro-isoindol-1-one trifluoroacetate] |
| < 100 nM | 100 to 220 µL/min/mg | 100 to 220 µL/min/mg | O=C1c2c(OC3COC3)ccnc2CN1CCc1ccc2ccccc2n1 [compound 447, 4-(oxetan-3-yloxy)-6-[2-(2-quinolyl)ethyl]-7H-pyrrolo[3,4-b]pyridin-5-one] |
| < 100 nM | 100 to 220 µL/min/mg | 100 to 220 µL/min/mg | Cc1ncc(-c2ccnc3c2C(=O)N(CCc2ccc4ccccc4n2)C3)s1 [Example 326, 4-(2-Methyl-thiazol-5-yl)-6-(2-quinolin-2-yl-ethyl)-6,7-dihydro-pyrrolo[3,4-b]pyridin-5-one] |
| 100 to 200 nM | < 100 µL/min/mg | < 100 µL/min/mg | O=C1c2nccc(-c3cccnc3)c2CN1CCc1ccc2ccccc2n1 [compound 463, 4-Pyridin-3-yl-6-(2-quinolin-2-yl-ethyl)-5,6-dihydro-pyrrolo[3,4-b]pyridin-7-one trifluoroacetate] |
| < 100 nM | > 220 µL/min/mg | 100 to 220 µL/min/mg | O=C1c2cccc(-c3cc[nH]n3)c2CN1CCc1nc2ccccc2s1 [compound 428, 2-[2-(1,3-Benzothiazol-2-yl)ethyl]-4-(1H-pyrazol-3-yl)isoindolin-1-one] |
| < 100 nM | 100 to 220 µL/min/mg | 100 to 220 µL/min/mg | O=C1c2c(N3CCC4(COC4)C3)ccnc2CN1CCc1ccc2ccccc2n1 [Example 257, 4-(2-Oxa-6-aza-spiro[3.4]oct-6-yl)-6-(2-quinolin-2-yl-ethyl)-6,7-dihydro-pyrrolo[3,4-b]pyridin-5-one] |
| < 100 nM | < 100 µL/min/mg | < 100 µL/min/mg | O=C1c2c(-c3cncnc3)cc[n+]([O-])c2CN1CCc1ccc2ccccc2n1 [Example 296, 1-Oxy-4-pyrimidin-5-yl-6-(2-quinolin-2-yl-ethyl)-6,7-dihydro-pyrrolo[3,4-b]pyridin-5-one] |
| < 100 nM | 100 to 220 µL/min/mg | > 220 µL/min/mg | O=C1c2c(N3CCOCC3)ccnc2CN1CCc1nc2ccc(F)cc2s1 [compound 405, 6-[2-(6-Fluoro-1,3-benzothiazol-2-yl)ethyl]-4-morpholino-7H-pyrrolo[3,4-b]pyridin-5-one] |
| 200 to 500 nM | < 100 µL/min/mg | < 100 µL/min/mg | O=C1c2c(cccc2-c2ccncc2)CN1CCc1nc2ccccn2n1 [Example 230, 7-Pyridin-4-yl-2-(2-[1,2,4]triazolo[1,5-a]pyridin-2-yl-ethyl)-2,3-dihydro-isoindol-1-one] |
| 100 to 200 nM | 100 to 220 µL/min/mg | < 100 µL/min/mg | COc1ccc(-c2ccnc3c2C(=O)N(CCc2nc4ccccc4s2)C3)cc1 [compound 541, 6-[2-(1,3-Benzothiazol-2-yl)ethyl]-4-(4-methoxyphenyl)-7H-pyrrolo[3,4-b]pyridin-5-one trifluoroacetate] |
| < 100 nM | 100 to 220 µL/min/mg | 100 to 220 µL/min/mg | COc1ccc(-c2cncnc2)c2c1CN(CCc1ccc3ccccc3n1)C2=O [Example 183, 4-Methoxy-7-pyrimidin-5-yl-2-(2-quinolin-2-yl-ethyl)-2,3-dihydro-isoindol-1-one] |
| 200 to 500 nM | 100 to 220 µL/min/mg | 100 to 220 µL/min/mg | CN(C)Cc1ccc(-c2cccc3c2C(=O)N(CCc2ccc4ccccc4n2)C3)cc1 [Example 188, 7-(4-Dimethylaminomethyl-phenyl)-2-(2-quinolin-2-yl-ethyl)-2,3-dihydro-isoindol-1-one (dihydrochloride)] |
| < 100 nM | < 100 µL/min/mg | < 100 µL/min/mg | COc1ccc(-c2ccnn2C)c2c1CN(CCc1cn3ccccc3n1)C2=O [Example 373, 2-(2-Imidazo[1,2-a]pyridin-2-yl-ethyl)-4-methoxy-7-(2-methyl-2H-pyrazol-3-yl)-2,3-dihydro-isoindol-1-one] |
| < 100 nM | < 100 µL/min/mg | 100 to 220 µL/min/mg | O=C1c2c(cccc2-c2cccnc2)CN1CCc1cn2ccccc2n1 [Example 235, 2-(2-Imidazo[1,2-a]pyridin-2-yl-ethyl)-7-pyridin-3-yl-2,3-dihydro-isoindol-1-one] |
| < 100 nM | 100 to 220 µL/min/mg | < 100 µL/min/mg | O=C1c2cccc(-c3cscn3)c2CN1CCc1cn2ccccc2n1 [compound 537, 2-(2-Imidazo[1,2-a]pyridin-2-ylethyl)-4-thiazol-4-yl-isoindolin-1-one] |
